# Assay results taken from patent US20040266008A1, “Polyene polyketides, processes for their production and their use as pharmaceuticals” (Ecopia BioSciences, Inc., priority 2003, published 2004).
# Columns and labels:
# [1] = test system: C. albicans (Ctro); test: MIC broth microdilution, C. albicans (Ctro)
# [2] = test system: C. albicans (Calb); test: MIC broth microdilution, C. albicans (Calb)
# [3] = test system: Candida sp. (Cflu); test: MIC broth microdilution, Candida sp. (Cflu)
# [4] = test system: C. glabrata (Cgla); test: MIC broth microdilution, C. glabrata (Cgla)
# [5] = test system: S. cerevisiae (Scer); test: MIC broth microdilution, S. cerevisiae (Scer)
Structure (SMILES),Minimal Inhibitory Concentrations ([1]; 24 hrs) [µg/mL],Minimal Inhibitory Concentrations ([1]; 48 hrs) [µg/mL],Minimal Inhibitory Concentrations ([2]; 24 hrs) [µg/mL],Minimal Inhibitory Concentrations ([2]; 48 hrs) [µg/mL],Minimal Inhibitory Concentrations ([3]; 24 hrs) [µg/mL],Minimal Inhibitory Concentrations ([3]; 48 hrs) [µg/mL],Minimal Inhibitory Concentrations ([4]; 24 hrs) [µg/mL],Minimal Inhibitory Concentrations ([4]; 48 hrs) [µg/mL],Minimal Inhibitory Concentrations ([5]; 24 hrs) [µg/mL],Minimal Inhibitory Concentrations ([5]; 48 hrs) [µg/mL]
C[C@@H]1[C@H](O)[C@@H](C)/C=C/C=C/C=C/C=C/C=C/C=C/C=C/[C@H](O[C@@H]2O[C@H](C)[C@@H](O)[C@H](N)[C@@H]2O)C[C@@H]2O[C@](O)(C[C@@H](O)C[C@@H](O)[C@H](O)CC[C@@H](O)C[C@@H](O)CC(=O)O[C@H]1C)C[C@H](O)[C@H]2C(=O)O [Amphotericin B],1,2,0.5 to 1,1,0.5 to 1,1,0.5 to 1,1,0.5,1
C\C(=C/C=C/C=C/CC/C=C/C(C)C(O)C(C)C(O)/C=C/C=C/C=C/C=C/C=C/C=C/CC(OS(=O)(=O)O)C(C)C(=O)CC(O)CC(O)/C=C/CC(O)CC(O)CC(O)/C=C/CC(O)CC(O)/C=C/CC(O)CC(O)CCCNC(=N)N)C(=O)O (centres unmarked) [Compound 1],4,,4,,8,,4,,4,
C\C(=C/C=C/C=C/CC/C=C/C(C)C(O)C(C)C(O)/C=C/C=C/C=C/C=C/C=C/C=C/CC(O)C(C)C(=O)CC(O)CC(O)/C=C/CC(O)CC(O)CC(O)/C=C/CC(O)CC(O)/C=C/CC(O)CC(O)CCCNC(=N)N)C(=O)O (centres unmarked) [Compound 2],,4,,4,,8,,4,,4
